Biological target: T1, CFTR ΔF508 mutant (Homo sapiens, UniProt P13569, DEL508-508)
T1 construct: expressed in transfected cells; host or cells: CFBE41o- (adenoviral transduction)
Test: YFP-halide influx assay for the CFTR-ΔF508 mutation, gluconate buffer
Format: cell-based
Conditions: CFBE41o- cells, forskolin 10.67 μM
Excerpt: The YFP halide influx assay measures the functionality of the cystic fibrosis Transmembrane Conductance regulator (CFTR) channels in the cystic fibrosis bronchial epithelium cell line CFBE41o-. The assay is used to evaluate the capacity of compounds to increase the open probability of existing CFTR channels in the membrane. It makes use of the observation that the yellow fluorescent protein (YFP) variant YFP H148Q, I152L has its fluorescence substantially quenched by halide ions like Cl^− and I^−. (Galietta, Haggie, & Verkman, 2001) (Nagai, et al., 2002)
For this purpose, CFBE41o-cells are seeded in 96 well plates (6000 CFBE cells/well). One day after seeding, the CFBE cells are transduced with adenoviral vectors that direct the expression of the CFTR ΔF508 mutant and of the YFP reporter. Cells are incubated at 27° C., 5% CO2 for 24 hours so as to allow for the proper folding and migration to the membrane of the CFTR channel or treated with a CFTR modulator during 24 hours at 37° C.
The I^−-induced quenching of fluorescence is recorded immediately after injection of I^− for 7 seconds. The capacity of a compound to increase the channel opening is directly correlated with the decrease in fluorescence, and is expressed as (1-(fluorescence after 7 seconds (F)/fluorescence before injection (F0))) and an EC50 can be derived from a (1-F/F0) vs compound concentration plot.

T1 sequence (P13569 with tags, fused parts or gaps DEL508-508): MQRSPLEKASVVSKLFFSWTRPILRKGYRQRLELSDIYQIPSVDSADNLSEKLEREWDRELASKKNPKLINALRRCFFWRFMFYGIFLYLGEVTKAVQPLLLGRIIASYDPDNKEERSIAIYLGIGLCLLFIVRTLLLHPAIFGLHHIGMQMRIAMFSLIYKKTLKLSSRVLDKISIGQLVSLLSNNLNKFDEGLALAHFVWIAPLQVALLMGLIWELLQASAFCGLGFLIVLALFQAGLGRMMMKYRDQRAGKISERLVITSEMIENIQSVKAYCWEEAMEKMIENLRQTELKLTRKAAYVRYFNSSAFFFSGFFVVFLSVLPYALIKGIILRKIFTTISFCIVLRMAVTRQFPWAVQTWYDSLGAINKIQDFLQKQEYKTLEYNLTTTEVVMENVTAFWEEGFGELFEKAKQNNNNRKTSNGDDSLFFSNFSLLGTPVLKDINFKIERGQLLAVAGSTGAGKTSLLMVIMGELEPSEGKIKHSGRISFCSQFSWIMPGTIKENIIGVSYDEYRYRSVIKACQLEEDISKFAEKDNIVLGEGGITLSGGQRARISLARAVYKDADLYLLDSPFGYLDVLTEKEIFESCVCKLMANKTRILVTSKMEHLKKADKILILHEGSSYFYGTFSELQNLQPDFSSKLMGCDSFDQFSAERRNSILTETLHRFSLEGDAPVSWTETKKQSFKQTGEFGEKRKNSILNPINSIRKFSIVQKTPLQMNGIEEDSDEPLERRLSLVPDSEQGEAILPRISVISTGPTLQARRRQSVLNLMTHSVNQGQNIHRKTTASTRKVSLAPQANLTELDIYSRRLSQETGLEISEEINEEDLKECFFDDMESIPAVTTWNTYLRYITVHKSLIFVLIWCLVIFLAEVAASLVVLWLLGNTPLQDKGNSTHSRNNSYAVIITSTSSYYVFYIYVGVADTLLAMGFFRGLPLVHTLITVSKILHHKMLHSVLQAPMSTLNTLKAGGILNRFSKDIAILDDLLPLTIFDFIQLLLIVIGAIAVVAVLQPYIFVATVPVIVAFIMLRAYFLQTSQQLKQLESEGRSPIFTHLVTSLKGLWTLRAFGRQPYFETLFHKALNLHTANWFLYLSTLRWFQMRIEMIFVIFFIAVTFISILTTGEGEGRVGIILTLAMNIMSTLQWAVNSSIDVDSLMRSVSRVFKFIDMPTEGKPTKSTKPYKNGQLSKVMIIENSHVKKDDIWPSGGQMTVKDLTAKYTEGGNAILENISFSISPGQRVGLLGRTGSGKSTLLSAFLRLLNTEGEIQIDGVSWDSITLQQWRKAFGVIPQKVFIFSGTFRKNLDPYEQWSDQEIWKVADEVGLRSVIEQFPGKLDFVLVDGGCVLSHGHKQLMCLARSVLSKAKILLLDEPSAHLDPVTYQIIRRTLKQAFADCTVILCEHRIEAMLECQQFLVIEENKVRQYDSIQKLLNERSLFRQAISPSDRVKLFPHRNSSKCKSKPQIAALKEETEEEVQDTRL

Point of comparison: `CC(C)(C)c1ccc(C(=O)Nc2sc(S(=O)(=O)N3CCOCC3)cc2C(N)=O)cc1` [Compound 49, 2-(4-tert-butylbenzamido)-5-(morpholinosulfonyl) thiophene-3-carboxamide], EC50 0.842 µM. Against it:
- NC(=O)c1cc(S(=O)(=O)N2CCOCC2)sc1NC(=O)c1cc2ccccc2s1 [Compound 50, N-(3-carbamoyl-5-(morpholinosulfonyl)thiophen-2-yl)benzo[b] thiophene-2-carboxamide] — 2.2-fold lower, 0.391 µM
- CC(C)(C)c1ccc(C(=O)Nc2sc(S(=O)(=O)N3CCOCC3)cc2C(N)=O)s1 [Compound 51, 5-tert-butyl-N-(3-carbamoyl-5-(morpholinosulfonyl)thiophen-2-yl) thiophene-2-carboxamide] — within 1.5-fold, 0.599 µM
- NC(=O)c1cc(S(=O)(=O)N2CCCCC2)sc1NC(=O)c1ccccc1C1CC1 [Compound 52, 2-(2-cyclopropylbenzamido)-5-(piperidin-1-ylsulfonyl) thiophene-3-carboxamide] — 4.1-fold lower, 0.205 µM
- NC(=O)c1cc(S(=O)(=O)N2CCCCC2)sc1NC(=O)c1cccc(-n2cccn2)c1 [Compound 53, 2-(3-(1H-pyrazol-1-yl)benzamido)-5-(piperidin-1-ylsulfonyl)thiophene-3-carboxamide] — within 1.5-fold, 1.26 µM
- NC(=O)c1cc(S(=O)(=O)N2CCCCC2)sc1NC(=O)c1cccc(-c2cc[nH]n2)c1 [Compound 54, 2-(3-(1H-pyrazol-3-yl)benzamido)-5-(piperidin-1-ylsulfonyl)thiophene-3-carboxamide] — 3.8-fold higher, 3.16 µM
- NC(=O)c1cc(S(=O)(=O)N2CCCC2)sc1NC(=O)c1cc2ccccc2s1 [Compound 55, N-(3-carbamoyl-5-(pyrrolidini-1-ylsulfonyl)thiophen-2-yl)benzo[b] thiophene-2-carboxamide] — 4-fold higher, 3.33 µM
- NC(=O)c1cc(S(=O)(=O)N2CCCC2)sc1NC(=O)c1cc[nH]n1 [Compound 56, N-(3-carbamoyl-5-(pyrrolidin-1-ylsulfonyl)thiophen-2-yl)-1H-pyrazole-3-carboxamide] — 4.1-fold lower, 0.206 µM
- NC(=O)c1cc(S(=O)(=O)N2CCCCC2)sc1NC(=O)C1(c2ccccc2)CC1 [Compound 57, 2-(1-phenylcyclopropanecarboxamido)-5-(piperidin-1-ylsulfonyl) thiophene-3-carboxamide] — 3-fold higher, 2.49 µM
- N#CC1(C(=O)Nc2sc(S(=O)(=O)N3CCCCC3)cc2C(N)=O)CC1 [Compound 58, 2-(1-cyanocyclopropanecarboxamido)-5-(piperidin-1-ylsulfonyl) thiophene-3-carboxamide] — 4-fold higher, 3.33 µM
- NC(=O)c1cc(S(=O)(=O)N2CCCCC2)sc1NC(=O)c1cscn1 [Compound 59, N-(3-carbamoyl-5-(piperidin-1-ylsulfonyl)thiophen-2-yl)thiazole-4-carboxamide] — 4.6-fold lower, 0.182 µM
- NC(=O)c1cc(S(=O)(=O)N2CCCCC2)sc1NC(=O)c1cnn2ccccc12 [Compound 60, N-(3-carbamoyl-5-(piperidin-1-ylsulfonyl)thiophen-2-yl)pyrazolo[1,5-a]pyridine-3-carboxamide] — 2.3-fold higher, 1.9 µM
- NC(=O)c1cc(S(=O)(=O)N2CCCCC2)sc1NC(=O)C1(c2ccc(Cl)cc2)CC1 [Compound 61, 2-(1-(4-chlorophenyl)cyclopropanecarboxamido)-5-(piperidin-1-ylsulfonyl) thiophene-3-carboxamide] — higher, > 1 µM
- NC(=O)c1cc(S(=O)(=O)N2CCCCC2)sc1NC(=O)c1cncs1 [Compound 62, N-(3-carbamoyl-5-(piperidin-1-ylsulfonyl)thiophen-2-yl)thiazole-5-carboxamide] — 2.6-fold higher, 2.18 µM
- NC(=O)c1cc(S(=O)(=O)N2CCOCC2)sc1NC(=O)c1cc[nH]n1 [Compound 63, N-(3-carbamoyl-5-(morpholinosulfonyl)thiophen-2-yl)-1H-pyrazole-3-carboxamide] — 3.4-fold lower, 0.251 µM
- NC(=O)c1cc(S(=O)(=O)N2CCCCC2)sc1NC(=O)c1ccc(-c2cccnc2)s1 [Compound 64, N-(3-carbamoyl-5-(piperidin-1-ylsulfonyl)thiophen-2-yl)-5-(pyridin-3-yl)thiphene-2-carboxamide] — 2.6-fold higher, 2.16 µM
- CC(C)(C)c1ccc(C(=O)Nc2sc(S(=O)(=O)N3CCC(F)(F)CC3)cc2C(N)=O)cc1 [Compound 65, 2-(4-tert-butylbenzamido)-5-(4,4-difluoropiperidin-1-ylsulfonyl)thiophene-3-carboxamide] — 1.9-fold higher, 1.57 µM
- NC(=O)c1cc(S(=O)(=O)N2CCC(F)(F)CC2)sc1NC(=O)c1ccccc1F [Compound 66, 5-(4,4-difluoropiperidin-1-ylsulfonyl)-2-(2-fluorobenzamido)thiophene-3-carboxamide] — 5.5-fold lower, 0.153 µM
- CC(C)(C)C(=O)Nc1sc(S(=O)(=O)N2CCC(F)(F)CC2)cc1C(N)=O [Compound 67, 5-(4,4-difluoropiperidin-1-ylsulfonyl)-2-pivalamidothiophene-3-carboxamide] — 3.4-fold lower, 0.25 µM
- CC(C)(C)c1cc(C(=O)Nc2sc(S(=O)(=O)N3CCOCC3)cc2C(N)=O)n[nH]1 [Compound 68, 5-tert-butyl-N-(3-carbamoyl-5-(morpholinosulfonyl)thiophen-2-yl)-1H-pyrazole-3-carboxamide] — 6.5-fold lower, 0.129 µM
- CCc1cc(C(=O)Nc2sc(S(=O)(=O)N3CCOCC3)cc2C(N)=O)n[nH]1 [Compound 69, N-(3-carbamoyl-5-(morpholinosulfonyl)thiophen-2-yl)-5-ethyl-1H-pyrazole-3-carboxamide] — 5.7-fold lower, 0.147 µM
- COc1cc(Nc2ccccc2)ccc1C(=O)Nc1sc(S(=O)(=O)N2CCOCC2)cc1C(N)=O [Compound 70, 2-(2-methoxy-4-(phenylamino)benzamido)-5-(morpholinosulfonyl) thiophene-3-carboxamide] — within 1.5-fold, 0.921 µM
- CN(Cc1ccccc1)S(=O)(=O)c1cc(C(N)=O)c(NC(=O)C2(c3ccc4c(c3)OC(F)(F)O4)CC2)s1 [Compound 71, 5-(N-benzyl-N-methylsulfamoyl)-2-(1-(2,2-difluorobenzo[d][1,3]dioxol-5-yl)cyclopropanecarboxamido) thiophene-3-carboxamide] — within 1.5-fold, 0.797 µM
- CN(Cc1ccccc1)S(=O)(=O)c1cc(C(N)=O)c(NC(=O)c2ccccc2F)s1 [Compound 72, 5-(N-benzyl-N-methylsulfamoyl)-2-(2-fluorobenzamido) thiophene-3-carboxamide] — 2.6-fold lower, 0.326 µM
- CN(C)S(=O)(=O)c1cc(C(N)=O)c(NC(=O)c2ccccc2F)s1 [Compound 74, 5-(N,N-dimethylsulfamoyl)-2-(2-fluorobenzamido) thiophene-3-carboxamide] — 6.2-fold lower, 0.135 µM
- CN(C)S(=O)(=O)c1cc(C(N)=O)c(NC(=O)c2cc[nH]n2)s1 [Compound 75, N-(3-carbamoyl-5-(N,N-dimethylsulfamoyl)thiophen-2-yl)-1H-pyrazole-3-carboxamide] — 2-fold lower, 0.418 µM
- NC(=O)c1cc(S(=O)(=O)N2CCOCC2)sc1NC(=O)c1cscn1 [Compound 76, N-(3-carbamoyl-5-(morpholinosulfonyl)thiophen-2-yl)thiazole-4-carboxamide] — within 1.5-fold, 0.621 µM
- NC(=O)c1cc(S(=O)(=O)N2CCOCC2)sc1NC(=O)c1ncccc1F [Compound 77, N-(3-carbamoyl-5-(morpholinosulfonyl)thiophen-2-yl)-3-fluoropicolinamide] — 4-fold higher, 3.33 µM
- NC(=O)c1cc(S(=O)(=O)N2CCOCC2)sc1NC(=O)c1cccnn1 [Compound 79, N-(3-carbamoyl-5-(morpholinosulfonyl)thiophen-2-yl) pyridazine-3-carboxamide] — higher, > 1 µM
- NC(=O)c1cc(S(=O)(=O)N2CCOCC2)sc1NC(=O)c1ccnnc1 [Compound 80, N-(3-carbamoyl-5-(morpholinosulfonyl)thiophen-2-yl)pyridazine-4-carboxamide] — higher, > 1 µM
- NC(=O)c1cc(S(=O)(=O)N2CCOCC2)sc1NC(=O)c1ncccn1 [Compound 81, N-(3-carbamoyl-5-(morpholinosulfonyl)thiophen-2-yl) pyrimidine-2-carboxamide] — higher, > 1 µM
- Cc1ccc(C(=O)Nc2sc(S(=O)(=O)Cc3ccccc3)cc2C(N)=O)s1 [Compound 82, N-(5-(benzylsulfonyl)-3-carbamoylthiophen-2-yl)-5-methylthiophene-2-carboxamide] — 1.8-fold lower, 0.468 µM
- Cc1ccc(C(=O)Nc2sc(S(=O)(=O)C3CCOCC3)cc2C(N)=O)s1 [Compound 84, N-(3-carbamoyl-5-(tetrahydro-2H-pyran-4-ylsulfonyl)thiophen-2-yl)-5-methylthiophene-2-carboxamide] — 3.8-fold higher, 3.19 µM
- Cc1c(S(=O)(=O)N2CCOCC2)sc(NC(=O)c2ccccc2F)c1C(N)=O [Compound 85, 2-(2-fluorobenzamido)-4-methyl-5-(morpholinosulfonyl) thiophene-3-carboxamide] — 7.4-fold lower, 0.114 µM
- Cc1ccc(C(=O)Nc2sc(S(=O)(=O)c3ccccc3)c(C)c2C(N)=O)s1 [Compound 86, N-(3-carbamoyl-4-methyl-5-(phenylsulfonyl)thiophen-2-yl)-5-methylthiophene-2-carboxamide] — 6.1-fold lower, 0.138 µM
- CN(Cc1ccccc1)S(=O)(=O)c1cc(C(N)=O)c(NC(=O)C(C)(C)C)s1 [Compound 88, 5-(N-benzyl-N-methylsulfamoyl)-2-pivalamidothiophene-3-carboxamide] — 5.2-fold lower, 0.162 µM
- Cc1ccc(C(=O)Nc2sc(S(=O)(=O)c3ccccn3)cc2C(N)=O)s1 [Compound 89, N-(3-carbamoyl-5-(pyridin-2-ylsulfonyl)thiophen-2-yl)-5-methylthiophene-2-carboxamide] — 2.2-fold lower, 0.378 µM
